Results on two compounds are retold here after article PMC10350920, “Development of a 2,4-Diaminothiazole Series for the Treatment of Human African Trypanosomiasis Highlights the Importance of Static–Cidal Screening of Analogues” (Journal of Medicinal Chemistry, 2023).

The nature of data set [1]: Pharmacokinetics in HRN mice. The conditions noted are these: IP, 10 mg kg^–1.
The nature of data set [2]: Mouse brain penetration (brain:blood ratio). The conditions noted are these: mice, bolus of test compound, total compound. The format is in vivo, female NMRI mice. On the procedure: Medicines for HAT are required to treat both acute and chronic infections, where parasites pass through the blood/brain barrier and enter the CNS. With this in mind, mice were dosed with an […] bolus of our test compounds, and compound concentrations in blood and brain were determined by UPLC–MS/MS. […] The brain fraction unbound was 0.0063 for 16 and 0.0313 for 38. Brain penetration of the series as a whole tracked with the generally accepted rules of CNS penetration, with a lower topological PSA (TPSA) and molecular weight compounds having an increased B/B ratio (Table S2 and Figure S1). However, the link between log P and the B/B ratio was slightly less convincing. […] This difference could be explained by 18 being a substrate for the P-glycoprotein efflux pump.
Each compound was dosed as an IV bolus at 10 mg kg^–1 dissolved in 15% solutol/Milli-Q (dose volume 10 mL kg^–1) to female NMRI mice (n = 3). At 30 min following the IV bolus of the test compound, mice (n = 3/time point) were placed under terminal anesthesia with isoflurane. A blood sample was taken by cardiac puncture and added to two volumes of distilled water, and the brain was removed. […] For each mouse at each time point, the concentration in the brain (ng g^–1) was divided by the concentration in blood (ng mL^–1) to give a brain: blood ratio.

For data set [3], the system named is human MRC-5 fibroblasts. Description: Mammalian cell counter screen (MRC-5). It counts as cell-based. The conditions noted are these: for SI: selectivity index (EC50 MRC5/EC50 T. brucei). The procedure: Drug sensitivity assays with BSF T. b. brucei “single marker” S427 and human MRC-5 fibroblasts were conducted as previously described.[43]
For orientation: A counterscreen serves to expose hits that act by an unwanted route or on another target.

For data set [4], the system named is T. b. brucei S427. Description: Stage 1 efficacy study in NMRI mice. It counts as in vivo. The procedure: Stage 1 efficacy experiments using T. b. brucei S427 were performed as described,[44] with minor modifications. In brief, male SD rats (38) or female HRN (16) and NMRI (16, 38) mice (3–5 per group) were injected intraperitoneally with 1 × 10^4 BSFs of T. brucei. These BSFs come from a stock of cryopreserved stabilates containing 10% glycerol. The stabilate was suspended in 20 mM Hanks’ balanced salt solution with glucose to obtain a trypanosome concentration of 5 × 10^4 cells mL^–1. Each mouse was injected with 0.2 mL. […] Dose concentrations were 1.25, 2.5, 5, 7.5, 10, 30, and 50 mg kg^–1 free base (16) or 100 mg kg^–1 free base (38). The doses were prepared fresh daily, using 5% DMSO/40% PEG400/55% Milli-Q (16) or 15% solutol/85% Milli-Q (38), and the dose volume was 10 mL kg^–1. One group of three mice was an untreated control group.

Data set [5] deals with stage 2 HAT. Put plainly: Stage 2 model of CNS disease. The format is in vivo.
A short description of data set [6]: Human microsomal intrinsic clearance. The conditions noted are these: second value of mouse/human cell. It counts as in vitro ADME.
Data set [7] deals with Tb927.8.6290 overexpressing cell lines (A258P). Put plainly: Drug sensitivity, line overexpressing Tb927.8.6290 A258P. The conditions noted are these: for EC50: Trypanosoma brucei. It counts as cell-based, T. b. brucei. On the procedure:
(§1) Drug sensitivity assays were carried out with BSF T. b. brucei “single marker” S427 or BSF T. b. brucei, Lister 427, MiTat 1.2, clone 221a 2T1 cells,[45] cells grown at 37 °C with 5% CO2 in an HMI-9T medium[46] as previously described.[47] 2T1 cells were initially maintained with 1 μg mL^–1 puromycin and 1 μg mL^–1 phleomycin prior to transfection or 2.5 μg mL^–1 hygromycin and 1 μg mL^–1 phleomycin after transfection. Induction of overexpression was achieved by the addition of 1 μg mL^–1 tetracycline to the culture medium.
The following primers were used to PCR amplify Tb927.8.6290 from genomic DNA isolated from wild-type and 38-resistant trypanosomes 5′-[…]-3′ (PacI site in bold) and 5′-[…]-3′ (BamHI site in bold). The PCR products (1272 bp) were then cloned into the pRPa plasmid.[53] The accuracy of the plasmid constructs was confirmed by in-house Sanger sequencing and then linearized with AscI prior to transfection. The linearized plasmids were introduced into 2T1 T. b. brucei cells following removal of puromycin from the media and selected with 2.5 μg mL^–1 hygromycin and 1 μg mL^–1 phleomycin. Two independent clones were selected for further studies.

Data set [8] can be described thus: Tolerability / maximum tolerated dose. The conditions noted are these: NMRI mice, IP.
The test system of data set [9] is T. brucei RES I. Put plainly: Drug sensitivity, compound 38-resistant clone RES I. It counts as cell-based, T. b. brucei. On the procedure: as §1
Compound-resistant cell lines were generated by subculturing a clone of T. brucei in the continuous presence of 38. Starting at sublethal concentrations, drug concentrations in two independent cultures were increased in a stepwise manner, usually 2-fold. When parasites were able to survive and grow in concentrations of drugs equivalent to more than 10 times the established EC50 value, the resulting cell lines were cloned by limiting dilution in the presence of the compound. Two clones (RES I-II) were selected for further biological study. A standard alkaline lysis protocol was used to isolate genomic DNA from compound-resistant bloodstream T. brucei parasites (∼1 × 10^8). Whole genome sequencing was performed using a DNB-seq next-generation sequencing platform (BGI, Hong Kong). Sequencing reads (150 bp) were aligned to the T. brucei TREU927 genome (v39; tritrypDB) using Bowtie2[48] and Samtools[49] software. […] Samtools and BCFtools[52] (mpileup) were used to call SNP and indels compared with the wild-type starter clone, where the overall quality score (QUAL) was >100. Artemis[50] was used to analyze chromosome and gene copy number variation, as well as visualization of SNPs.

A short description of data set [10]: Pharmacokinetics in rats. The format is in vivo, Sprague Dawley rats.
Experimental: To determine compound exposure, compounds were dosed by gavage (16, 38) at 10 mg kg^–1 free base (16, 38), dose volume; and 5 mL kg^–1 (16, 38), dose vehicle (10% DMSO/40% PEG400/50% Milli-Q) to female NMRI mice, n = 3/dose level (16), or Sprague Dawley rats (38). Blood samples were taken from each mouse/rat at 5, 15, and 30 min, 1, 2, 4, 6, and 8 h postdose and mixed with two volumes of distilled water. After suitable sample preparation, the concentration of the test compound in blood was determined by UPLC–MS/MS using a Quattro Premier XE (Waters, USA). Pharmacokinetic parameters were derived from the mean blood concentration–time curve using PKsolutions software v 2.0 (Summit Research Services, USA).
Where [11] appears, read: male, Sprague Dawley, whole blood, rat, PO, 10 mg kg^–1.

“Also recorded” adds a separate entry of the source. Like-named read-outs stand apart in the source and are kept apart here.

Take “(4-Amino-2-(cyclohexylamino)thiazol-5-yl)(2,6-difluorophenyl)methanone [Compound 16]”: in data set [1], the AUC was 1,000,000 ng mL h^–1 and the Tmax was determined as 0.50 h. Besides, the “brain/blood (B/B) ratio” value in [2] came to 3.3. In addition, the EC50 in data set [3] (mean values, number of replicates in parentheses, read-out: MRC-5 EC50) stood at 1200 nM. In addition, the SI in data set [3] came out at 11. The “stage 1 efficacy (cure = no parasitemia for 30 days)” value in [4] (IP 10 mg kg^–1 twice daily for 4 days) is “complete cure; also recorded: efficacious”. In data set [5], the “efficacy in stage 2 disease model” value is recorded as “not efficacious”.
As for `CC(C)(O)CC(=O)c1sc(Nc2ccc(F)c(F)c2)nc1N` [Compound 38, 1-(4-Amino-2-((3,4-difluorophenyl)amino)thiazol-5-yl)-3-hydroxy-3-methylbutan-1-one], the “CLint (human)” value in data set [6] is < 0.5 mL·min/g. Also, the EC50 in data set [7] (read-out: EC50, A258P +TET) was 12000 ± 250 nM. The EC50 in [7] (read-out: EC50, A258P –TET) is 310 ± 9 nM. The “fold shift, A258P” value in [7] (−TET vs +TET EC50, in brackets) was found to be 40. In data set [8], the “maximum dose chosen following maximum tolerated dose study” value worked out at 100 mg kg^–1. The Kp at 30 min in data set [2] (female, NMRI, mouse, brain and blood, 10 mg kg^–1, read-out: brain/blood (B/B) ratio) came to 1.4. The compound further had an SI in data set [3] of 256. Moreover, the EC50 in data set [9] (Trypanosoma brucei, read-out: EC50, RES I) came out at 2200 ± 84 nM. For the same compound, the “fold resistance, RES I” value in data set [9] (relative to the parental wild-type, in brackets) turned out to be 7. In data set [4] (bid 4 days 100 mg kg^–1), the “stage 1 efficacy, parasitemia” value is recorded as “no reduction in parasitemia”. In data set [10] (male SD rats, 10 mg kg^–1 PO), the “free blood Cmax” value turned out to be 195 ng mL^–1. In data set [10] (setting [11]), the AUC was 7830 ng·h/mL, the Cmax came to 1400 ng/mL and the Tmax stood at 4 h.

A word on the AUC: it is the area under the concentration-time curve, a measure of exposure. Higher therefore signals more exposure. By Tmax is commonly meant the time from dosing to the highest level. One may read the EC50 as the concentration giving half of the maximal effect. For orientation: Cmax means the peak of the concentration-time curve.
